Experimental data from patent US20240277767A1, “METHODS AND USES” (PROLEUKOCYTE AB, priority 2021, published 2024).

Columns and labels:
Format in all cases: cell-based, human
[1] = system: NK cells; assay: [Cr51]-release assay: lysis of tumour target cells by pre-treated NK cells after H2O2 exposure; conditions: for Lysis of K562 target cells by pre-treated NK cells after H2O2 exposure: 18 h pre-treatment, H2O2 1 h up to 250 μM, E:T 9:1, vs control NK cells; for Suppressive effect of H2O2 on lymphocyte function (killing, degranulation, IFNγ): expanded NK cells and patient derived TIL, pre-treatment; for Dependence of the protective effect on Nrf2 activation: qPCR of Nrf2 target genes and K562 lysis with/without Nrf2 inhibitor ML385
Description: Peripheral blood samples (anonymized by-products of blood donations from healthy adult donors) were purchased from Karolinska University Hospital Blood Bank. Peripheral blood mononuclear cells (PBMC) were isolated from healthy donor buffy coats using density centrifugation with Ficoll® Paque Plus (GE Healthcare). NK cells and CD14^+ monocytes were isolated from PBMCs using NK cell isolation kit or CD14^+ microbeads, respectively (both Miltenyi Biotec), following the manufacturer's instructions. For NK cell expansion, a EBV-LCL feeder cell line was used, irradiated at 100 gy and then co-cultured with NK cells, at the ratio 10:1 LCL:NK, in X-Vivo 20 (Lonza) supplemented with 10% human AB serum and 1000 U/mL IL-2 (Proleukin). From day 6 or 10, NK cells were kept at 0.5×10^6 cells/mL or 1×10^6/mL, respectively. Purity of expanded NK cell was assessed at day 10 by flow cytometry, see below.
Lymphocytes were pre-treated for 18 h with Auranofin (AUF, with the concentration 1 μg/mL for NK cells and 0.5 μg/mL for TIL, if not indicated differently), DL-Sulforaphane (SUL) or Dimethyl Fumarate (DMF) (all Sigma-Aldrich) at indicated concentrations.
(§1) For Nrf2 inhibition, NK cells were treated with 50 μM ML-385 (Sigma-Aldrich) in parallel. For H2O2 treatment, lymphocyte cells were washed and resuspended to 1×10^6 cells/mL in medium and exposed to indicated H2O2 (Sigma-Aldrich) concentration for 1 h at 37° C. Cells were washed with medium and then used for further experiments. For monocyte experiments, autologous NK cell-monocytes or TIL-monocytes were used. NK cells/TIL were isolated and pre-treated with 0.5 μg/mL AUF, as described above, and co-cultured with unstimulated at the ratio, 1:2 M:NK, or stimulated monocytes at the ratio, 1:1 M:NK, if not indicated otherwise. Stimulated monocytes were activated with 100 ng/ml PMA for 1 min, washed and added at indicated ratio, the number of NK cell/TIL was kept constant. As control, H2O2 was used at indicated concentration. Cells were co-cultured for 2 h and then effector cells were stained for intracellular ROS (see flow cytometry) or used as effector cells in Cr^51 release assay (E:T ratio 10:1).
(§2) For cytotoxic assay, a standard 4 h [Cr^51]-release assay was used. Briefly, tumour cells were harvested and labeled with 51Cr (PerkinElmer) and used as target cells. Effector cells, NK cells and T cells, were co-cultured in 96-well V-bottom plate with indicated tumour cells at the stated effector target ratio (E:T). The supernatant was collected onto LUMA plates (Perkin-Elmer) and radioactivity/tumour cell lysis was detected by MicroBeta2 (Perkin Elmer). Target cell killing measured by % specific lysis and calculated using the formula: ((experimental release-spontaneous release)/(maximum release-spontaneous release))*100.
Lymphocytes were pre-treated for 18 h with Auranofin (AUF, with the concentration 1 μg/mL for NK cells and 0.5 μg/mL for TIL. As AUF was reconstituted in DMSO, control NK cells were pre-treated with DMSO with an equivalent volume to the highest compound concentration. For N-acetylcysteine (NAC, Invitrogen) treatment, DMSO pre-treated cells were incubated for 1 h with 5 or 10 mM NAC prior to H2O2 treatment. For H2O2 treatment, lymphocytes were washed and resuspended to 1×10^6 cells/mL in RPMI containing the indicated H2O2 (Sigma-Aldrich) concentration for 1 h at 37° C. 5% CO2. Cells were washed with medium and then used for further experiments.

[2] = system: tumour infiltrating lymphocytes (TIL); assay: IFNγ release by pre-treated TIL on autologous tumour cells after H2O2 treatment; conditions: KADA and ANRU melanoma TIL, E:T 4:1, vs control group
Description: ., 2020). […] For Nrf2 inhibition, NK cells were treated with 50 μM ML-385 (Sigma-Aldrich) in parallel. […] Cells were washed with medium and then used for further experiments. For monocyte experiments, autologous NK cell-monocytes or TIL-monocytes were used. […] Stimulated monocytes were activated with 100 ng/ml PMA for 1 min, washed and added at indicated ratio, the number of NK cell/TIL was kept constant. […] For cytokine release assay, NK cells and TIL were cultured with indicated tumour cells at the effector target ratio 4:1 (E:T) for 24 h in U-bottom plates. IFNγ secretion was measured using human IFN-γ ELISA development kit (Mabtech) following the manufacturer's instructions.

[3] = system: Nrf2 target genes (NQO1, HMOX1, TXNRD1, Keap1); assay: qPCR of classical Nrf2 target genes in NK cells; conditions: kinetic, fold change vs untreated
Description: Lymphocytes were pre-treated with AUF, SUL or DMF as described above. RNA was isolated using TRIzol™ Plus RNA Purification Kit (Invitrogen). cDNA was generated using the iScript™ cDNA Synthesis Kit (Bio-Rad) and qPCR was done using iTaq™ Universal SYBR® Green Supermix (Bio-Rad) in the CFX96 Touch Real-Time PCR Detection System (Bio-Rad). Fold change expression from untreated cells was calculated using the 2^-ΔΔCt formula with b-actin as reference gene. Evaluated genes were NAD(P)H Quinone Dehydrogenase 1 (NQO1), Kelch Like ECH Associated Protein 1 (Keap1), Heme Oxygenase 1 (HMOX1) and Thioredoxin Reductase 1 (TXNRD1).

[4] = system: NK cells; assay: ADCC: NK cells with RAJI cells coated with Rituximab or Ofatumumab; conditions: Rituximab 0.5 μg/mL or Ofatumumab 0.05 μg/mL, E:T 9:1
Description: Lymphocytes were isolated and pre-treated when indicated, with compound and H2O2, as described above. For degranulation/measuring CD107a expression, NK cells were co-cultured with K562 tumour cells at an effector target ratio 1:1 in the presence of anti-CD107a in U-bottom plates. After 2 h, GolgiStop™ and GolgiPlug™ (BD Bioscience) were added and cells were harvested after an additional 4 h co-culture and stained for CD56 and CD3, as described above. For positive control, 25 ng/ml PMA (Sigma Aldrich) and 500 ng/mL Ionomycin (Sigma Aldrich) were added.
as §2
For analyzing ADCC, NK cells were cultured with RAJI cells and Rituximab (0.5 μg/mL, MabThera, Roche) or Ofatumumab (0.05 μg/mL, Arzerra, Novartis).

[5] = system: NK cells; assay: NK cells co-cultured with PMA-activated autologous monocytes: intracellular ROS and K562 lysis; conditions: 100 U/mL catalase; intracellular ROS and K562 lysis
Description: as §1
Monocytes were stimulated with 100 ng/ml PMA for 1 min and washed with HBSS (Gibco). Cells were resuspended in HBSS 5% FBS and added to a 96-well Optiplate (Perkin Elmer) containing HBSS 5% FBS and Luminol (56 μM; Sigma). Luminescence was measured immediately using a EnSpire plate reader (Perkin Elmer).
For detection of intracellular ROS levels, for NK cells CellROX™ Deep Red Reagent (Invitrogen) were used. Briefly, NK cells were stained with 2.5 μM CellROX solution in RPMI for 30 min at 37° C. and then stained for flow cytometry with anti-CD56 and anti-CD3 (both Biolegend).
as §2

C[S+]([O-])CCCCN=C=S (racemic) [SUL, 1-Isothiocyanato-4-(methanesulfinyl)butane]
Lysis of K562 target cells by pre-treated NK cells after H2O2 exposure [1]: comparable protective effects as AUF | Suppressive effect of H2O2 on lymphocyte function (killing, degranulation, IFNγ) [1]: counteracts the suppressive effect of H2O2 on lymphocyte function | Dependence of the protective effect on Nrf2 activation [1]: dependent on Nrf2 activation | Recognition of autologous tumour cells by TIL (IFNγ production) upon exposure to H2O2 [2]: increased recognition of their autologous tumour cells | Influence on Nrf2 target genes in NK cells compared with AUF [3]: comparable influence

CC(=O)N[C@@H](CS)C(=O)O [NAC, N-acetylcysteine]
Protection of K562 lysis by control NK cells pre-treated with NAC, compared to AUF ([1]; 1 h, 5 or 10 mM NAC, increased H2O2 concentrations): less protection

Ofatumumab: antibody therapy targeting CD20
Recognition of antibody-coated RAJI cells by NK cells (killing and CD107a degranulation) [4]: efficient recognition of the target cells

Rituximab: antibody therapy targeting CD20
Recognition of antibody-coated RAJI cells by NK cells (killing and CD107a degranulation) [4]: efficient recognition of the target cells

Cc1ccccc1C(=O)N1CCc2cc(-c3nc(NC(=O)Cc4ccc5c(c4)OCO5)sc3C)ccc21 [ML385]
Effect of ML385 on K562 lysis by DMSO pre-treated control NK cells ([1]; 50 μM ML385): no effects | Lysis of K562 by NK cells pre-treated with AUF, SUL or DMF in combination with ML385 ([1]; 50 μM ML385, cells exposed to H2O2): significantly reduced

COC(=O)/C=C/C(=O)OC [DMF, Dimethyl (E)-butenedioate]
Lysis of K562 target cells by pre-treated NK cells after H2O2 exposure [1]: comparable protective effects as AUF | Suppressive effect of H2O2 on lymphocyte function (killing, degranulation, IFNγ) [1]: counteracts the suppressive effect of H2O2 on lymphocyte function | Dependence of the protective effect on Nrf2 activation [1]: dependent on Nrf2 activation | Recognition of autologous tumour cells by TIL (IFNγ production) upon exposure to H2O2 [2]: increased recognition of their autologous tumour cells | Influence on Nrf2 target genes in NK cells compared with AUF [3]: comparable influence

B1: catalase: an enzyme efficiently converting H2O2 to H2O and O2 (protein, UniProt P04040 2-527, looked up)
Catalase: ADSRDPASDQMQHWKEQRAAQKADVLTTGAGNPVGDKLNVITVGPRGPLLVQDVVFTDEMAHFDRERIPERVVHAKGAGAFGYFEVTHDITKYSKAKVFEHIGKKTPIAVRFSTVAGESGSADTVRDPRGFAVKFYTEDGNWDLVGNNTPIFFIRDPILFPSFIHSQKRNPQTHLKDPDMVWDFWSLRPESLHQVSFLFSDRGIPDGHRHMNGYGSHTFKLVNANGEAVYCKFHYKTDQGIKNLSVEDAARLSQEDPDYGIRDLFNAIATGKYPSWTFYIQVMTFNQAETFPFNPFDLTKVWPHKDYPLIPVGKLVLNRNPVNYFAEVEQIAFDPSNMPPGIEASPDKMLQGRLFAYPDTHRHRLGPNYLHIPVNCPYRARVANYQRDGPMCMQDNQGGAPNYYPNSFGAPEQQPSALEHSIQYSGEVRRFNTANDDNVTQVRAFYVNVLNEEQRKRLCENIAGHLKDAQIFIQKKAVKNFTEVHPDYGSHIQALLDKYNAEKPKNAIHTFVQSGSHLAAREKANL
Lysis of K562 target cells by control NK cells with catalase added before H2O2 ([1]; catalase added to control NK cells before incubation with H2O2): improve the function of the control NK cells in a comparable way to AUF pre-treatment | Difference between activated monocytes or H2O2 treated control NK cells in the presence of catalase [5]: no difference
